Assay [1] relates to Trypanosoma brucei rhodesiense (STIB900). As to the kind of experiment: In vitro growth inhibition assay of T. brucei rhodesiense. Format: cell-based.
The subject of assay [2] is Plasmodium falciparum (K1, resistant to chloroquine). As to the kind of experiment: In vitro growth inhibition assay of P. falciparum. Format: cell-based. The note with it: for IC50: Plasmodium falciparum, K1, read-out: antiplasmodial IC50, P. falciparum, in vitro.

Each structure is given as a SMILES string. Counter-ions that a name gives are not always drawn. A value given as a limit tells only on which side of the number the result lay.

On to `CC(C)NC(=N)c1cccc(-c2cn(-c3cccc(C(=N)NC(C)C)c3)nn2)c1.Cl.Cl` [Compound 2, 1,4-Bis(3-N-isopropylamidinophenyl)-1H-1,2,3-triazole Dihydrochloride], for which the “fold less active against T. brucei rhodesiense” value in assay [1] (relative to diamidine 1) is approximately 170 fold.
On the same count and under the same terms, the value for `Cl.Cl.c1cc(C2=NCCN2)cc(-c2cn(-c3cccc(C4=NCCN4)c3)nn2)c1` [Compound 3, 1,4-Bis[3-(4,5-dihydro-1H-imidazol-2-yl)phenyl]-1H-1,2,3-triazole Dihydrochloride] was approximately 170 fold.
With `CC(C)NC(=N)c1cccc(-c2cn(-c3cc(C(=N)NC(C)C)ccc3O)nn2)c1.Cl.Cl` [Compound 11, 1-(5-N-Isopropylamidino-2-hydroxyphenyl)-4-(3-N-isopropylamidinophenyl)-1H-1,2,3-triazole Dihydrochloride], the “fold lower antiplasmodial activity” value is 7 fold in assay [2] (relative to congener 2) and 6 fold in assay [2] (relative to congener 5).
`Cl.Cl.Oc1ccc(C2=NCCN2)cc1-n1cc(-c2cccc(C3=NCCN3)c2)nn1` [Compound 12, 1-[5-(4,5-Dihydro-1H-imidazol-2-yl)-2-hydroxyphenyl]-4-[3-(4,5-dihydro-1H-imidazol-2-yl)phenyl]-1H-1,2,3-triazole Dihydrochloride]: in assay [1] (relative to diimidazoline 3), the “fold less active against T. brucei rhodesiense” value worked out at 7 fold.
Take `Cl.Cl.Oc1ccc(C2=NCCN2)cc1-c1cn(-c2cccc(C3=NCCN3)c2)nn1` [Compound 15, 4-[5-(4,5-Dihydro-1H-imidazol-2-yl)-2-hydroxyphenyl]-1-[3-(4,5-dihydro-1H-imidazol-2-yl)phenyl]-1H-1,2,3-triazole Dihydrochloride]: in assay [2], the IC50 (usually the concentration that gives 50% inhibition) was less than 58 nM. Further, the “fold more active against P. falciparum” value in assay [2] (relative to diimidazoline 3) was found to be 7 fold.
`Cl.Cl.c1cc(C2=NCCN2)cc(-c2cn(-c3ccc(C4=NCCN4)cc3)nn2)c1` [Compound 18, 1-[4-(4,5-Dihydro-1H-imidazol-2-yl)phenyl]-4-(3-(4,5-dihydro-1H-imidazol-2-yl)phenyl)-1H-1,2,3-triazole Dihydrochloride]: the “fold less active against T. brucei rhodesiense” value in assay [1] (relative to diamidine 16) was determined as 25 fold.
Regarding `COc1cc(C2=NCCN2)ccc1-n1cc(-c2cccc(C3=NCCN3)c2)nn1.Cl.Cl` [Compound 21, 1-[4-(4,5-Dihydro-1H-imidazol-2-yl)-2-methoxyphenyl]-4-[3-(4,5-dihydro-1H-imidazol-2-yl)phenyl]-1H-1,2,3-triazole Dihydrochloride], in assay [1] (relative to congener 19), the “fold less active against T. brucei rhodesiense” value was 170 fold.
With `COc1ccc(C2=NCCN2)cc1-c1cn(-c2ccc(C3=NCCN3)cc2)nn1` [Compound 24, 4-[5-(4,5-Dihydro-1H-imidazol-2-yl)-2-methoxyphenyl]-1-[4-(4,5-dihydro-1H-imidazol-2-yl)phenyl]-1H-1,2,3-triazole Dihydrochloride], the IC50 in assay [2] was less than 58 nM.
In the case of `CC(C)NC(=N)c1ccc(-n2cc(-c3cc(C(=N)NC(C)C)ccc3O)nn2)cc1` [Compound 29, 4-(5-N-Isopropylamidino-2-hydroxyphenyl)-1-(4-N-isopropylamidinophenyl)-1H-1,2,3-triazole Dihydrochloride], the half-inhibitory concentration (IC50) in assay [2] was less than 58 nM.
As to `COc1ccc(C(=N)N)cc1-n1cc(-c2ccc(C(=N)N)cc2)nn1.Cl.Cl` [Compound 34, 1-(5-Amidino-2-methoxyphenyl)-4-(4-amidinophenyl)-1H-1,2,3-triazole Dihydrochloride], in assay [2], the IC50 was less than 58 nM. Besides, the “fold less active against P. falciparum” value in assay [2] (relative to congener 31) came to 4 fold.
With `COc1ccc(C(=N)NC(C)C)cc1-n1cc(-c2ccc(C(=N)NC(C)C)cc2)nn1.Cl.Cl` [Compound 35, 1-(5-N-Isopropylamidino-2-methoxyphenyl)-4-(4-N-isopropylamidinophenyl)-1H-1,2,3-triazole Dihydrochloride], in assay [2] (relative to bis(N-isopropyl)amidine 32), the “fold less active against P. falciparum” value came to 5 fold.
Turning to `COc1ccc(C2=NCCN2)cc1-n1cc(-c2ccc(C3=NCCN3)cc2)nn1` [Compound 36, 1-[5-(4,5-Dihydro-1H-imidazol-2-yl)-2-methoxyphenyl]-4-[4-(4,5-dihydro-1H-imidazol-2-yl)phenyl]-1H-1,2,3-triazole Dihydrochloride], the IC50 in assay [2] was less than 58 nM.
Take `Cl.Cl.N=C(N)c1ccc(-c2cn(-c3cc(C(=N)N)ccc3O)nn2)cc1` [Compound 40, 1-(5-Amidino-2-hydroxyphenyl)-4-(4-amidinophenyl)-1H-1,2,3-triazole Dihydrochloride]: the “fold less active against P. falciparum” value in assay [2] (relative to congener 31) is 308 fold.
Regarding `CC(C)NC(=N)c1cccc(-n2cc(-c3ccc(C(=N)NC(C)C)cc3O)nn2)c1` [Compound 44, 4-(4-N-Isopropylamidino-2-hydroxyphenyl)-1-(3-N-isopropylamidinophenyl)-1H-1,2,3-triazole Dihydrochloride], in assay [2], the IC50 was less than 58 nM.
`Oc1cc(C2=NCCN2)ccc1-c1cn(-c2cccc(C3=NCCN3)c2)nn1` [Compound 45, 4-[4-(4,5-Dihydro-1H-imidazol-2-yl)-2-hydroxyphenyl]-1-[3-(4,5-dihydro-1H-imidazol-2-yl)phenyl]-1H-1,2,3-triazole Dihydrochloride]: the IC50 in assay [2] was less than 58 nM.
For the compound `c1cc(-c2cn(-c3ccc(C4=NCCN4)cc3)nn2)ccc1C1=NCCN1` [Compound 48, 1,4-Bis(4-(4,5-dihydro-1H-imidazol-2-yl)phenyl)-1H-1,2,3-triazole Dihydrochloride], the IC50 in assay [2] was less than 58 nM.
On the same count and under the same terms, under `COc1cc(C(=N)N)ccc1-n1cc(-c2ccc(C(=N)N)cc2)nn1` [Compound 49, 1-(4-Amidino-2-methoxyphenyl)-4-(4-amidinophenyl)-1H-1,2,3-triazole Dihydrochloride] stands less than 58 nM; under `COc1cc(C(=N)NC(C)C)ccc1-n1cc(-c2ccc(C(=N)NC(C)C)cc2)nn1` [Compound 50, 1-(4-N-Isopropylamidino-2-methoxyphenyl)-4-(4-N-isopropylamidinophenyl)-1H-1,2,3-triazole Dihydrochloride], less than 58 nM; under `COc1cc(C2=NCCN2)ccc1-n1cc(-c2ccc(C3=NCCN3)cc2)nn1` [Compound 51, 1-[4-(4,5-Dihydro-1H-imidazol-2-yl)-2-methoxyphenyl]-4-[4-(4,5-dihydro-1H-imidazol-2-yl)phenyl]-1H-1,2,3-triazole Dihydrochloride], less than 58 nM.
`COc1cc(C(=N)NC(C)C)ccc1-c1cn(-c2ccc(C(=N)NC(C)C)cc2)nn1` [Compound 53, 4-(4-N-Isopropylamidino-2-methoxyphenyl)-1-(4-N-isopropylamidinophenyl)-1H-1,2,3-triazole Dihydrochloride]: the IC50 in assay [2] was less than 58 nM.
In the case of `COc1cc(C2=NCCN2)ccc1-c1cn(-c2ccc(C3=NCCN3)cc2)nn1` [Compound 54, 4-[4-(4,5-Dihydro-1H-imidazol-2-yl)-2-methoxyphenyl]-1-[4-(4,5-dihydro-1H-imidazol-2-yl)phenyl]-1H-1,2,3-triazole Dihydrochloride], the IC50 in assay [2] is less than 58 nM.
`Oc1cc(C2=NCCN2)ccc1-n1cc(-c2ccc(C3=NCCN3)cc2)nn1` [Compound 57, 1-[4-(4,5-Dihydro-1H-imidazol-2-yl)-2-hydroxyphenyl]-4-[4-(4,5-dihydro-1H-imidazol-2-yl)phenyl]-1H-1,2,3-triazole Dihydrochloride]: in assay [2], the 50% inhibitory concentration (IC50) was less than 58 nM.
As to `CC(C)NC(=N)c1ccc(-n2cc(-c3ccc(C(=N)NC(C)C)cc3O)nn2)cc1.Cl.Cl` [Compound 59, 4-(4-N-Isopropylamidino-2-hydroxyphenyl)-1-(4-N-isopropylamidinophenyl)-1H-1,2,3-triazole Dihydrochloride], in assay [2], the half-maximal inhibitory concentration (IC50) was less than 58 nM.

(Values after PMC3113660 (Journal of medicinal chemistry, 2010).)
